# From BindingDB's records for doi:10.1021/ml300038t (2012)
# Molecular target: T1, 4,4'-diapophytoene synthase (Staphylococcus aureus, UniProt A9JQL9)
# T1 sequence (A9JQL9 whole entry): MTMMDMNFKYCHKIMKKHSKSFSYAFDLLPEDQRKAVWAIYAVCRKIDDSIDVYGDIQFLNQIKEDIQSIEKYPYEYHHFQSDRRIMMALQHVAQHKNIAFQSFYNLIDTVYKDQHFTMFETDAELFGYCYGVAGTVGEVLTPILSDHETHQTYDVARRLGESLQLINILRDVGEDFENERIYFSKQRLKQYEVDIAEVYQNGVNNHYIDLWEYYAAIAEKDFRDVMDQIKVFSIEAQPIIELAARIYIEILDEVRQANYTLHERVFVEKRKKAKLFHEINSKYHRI
# Experiment: Inhibition of Staphylococcus aureus His6-tagged CrtM expressed in Escherichia coli BL21(DE3) using Farnesyl pyrophosphate as substrate incubated for 30 mins prior to substrate addition by continuous spectrophotometric assay
row,SMILES,IC50
1,CCCCCCOc1cccc(CCCNC(=O)CC(=O)C(=O)O)c1,> 300 µM
2,CCCCCCCCOc1ccc(C(=O)CC(=O)C(=O)O)cc1,> 300 µM
